Structures can show the parent of a compound that is named as a salt. Where two headings read alike, the source gives them in different places.
What was measured:
[1] = tested on: striatal dopamine receptors; assay: animal or person; type: in vivo; conditions: Rattus norvegicus, sc, read-out: EC50, rotation behavior
D-1 receptor = assay: Adenylate cyclase assay (agonist activity, cAMP); type: biochemical, goldfish retina or rat striatum
dopamine D-1 receptor = dopamine D-1 receptor (Rattus norvegicus, UniProt P18901); conditions: read-out: D-1 Ki
Sequence of dopamine D-1 receptor (P18901 whole entry): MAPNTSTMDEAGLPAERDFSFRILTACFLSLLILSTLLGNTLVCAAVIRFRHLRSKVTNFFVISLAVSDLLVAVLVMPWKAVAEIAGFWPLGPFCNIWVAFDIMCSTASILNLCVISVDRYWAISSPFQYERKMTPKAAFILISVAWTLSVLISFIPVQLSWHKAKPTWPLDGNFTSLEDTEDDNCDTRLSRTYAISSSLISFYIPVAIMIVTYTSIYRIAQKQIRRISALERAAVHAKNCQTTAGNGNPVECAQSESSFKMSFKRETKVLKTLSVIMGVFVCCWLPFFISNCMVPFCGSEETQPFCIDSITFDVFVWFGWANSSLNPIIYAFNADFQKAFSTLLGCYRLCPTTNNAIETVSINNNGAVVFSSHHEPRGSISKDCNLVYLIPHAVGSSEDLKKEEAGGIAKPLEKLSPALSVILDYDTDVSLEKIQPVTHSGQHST

dopamine D-2 receptor = molecular target: T1, dopamine D-2 receptor (Rattus norvegicus, UniProt P61169); assay: D-2 receptor competitive binding, [3H]-spiroperidol, homogenized rat caudate; conditions: read-out: D-2 Ki
T1 construct: Homogenized rat caudate was the source of the D-2 receptors; from tissue; host or cells: rat caudate homogenate
T1 sequence (P61169 whole entry): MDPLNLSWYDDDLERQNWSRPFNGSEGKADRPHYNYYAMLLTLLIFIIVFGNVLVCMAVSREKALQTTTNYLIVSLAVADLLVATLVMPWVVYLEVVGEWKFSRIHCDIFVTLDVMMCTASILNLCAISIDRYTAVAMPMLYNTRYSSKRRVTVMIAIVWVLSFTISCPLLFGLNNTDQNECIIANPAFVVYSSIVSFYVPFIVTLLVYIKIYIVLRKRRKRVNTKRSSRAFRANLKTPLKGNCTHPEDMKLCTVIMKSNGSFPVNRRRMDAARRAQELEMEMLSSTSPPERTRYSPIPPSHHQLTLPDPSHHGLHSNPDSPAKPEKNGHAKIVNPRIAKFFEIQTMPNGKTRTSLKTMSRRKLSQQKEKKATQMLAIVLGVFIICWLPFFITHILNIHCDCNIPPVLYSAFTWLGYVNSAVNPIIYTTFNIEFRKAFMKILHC

dopamine receptors = conditions: literature; cited from earlier work
schizophrenia = conditions: literature, cited from earlier work; for antipsychotic effects: low doses
rats = conditions: literature; cited from earlier work
Parkinson's disease = conditions: alone, some patients; cited from earlier work

SMILES | ED50 [1] [µmol/kg] | EC50 (D-1 receptor) [nM] | Intrinsic Activity (%) (D-1 receptor) | Ki (dopamine D-1 receptor) [nM] | Ki (dopamine D-2 receptor; rat caudate, [3H]-spiroperidol) [nM] | other results
Cc1nc2c(o1)[C@@H]1c3cc(O)c(O)cc3CC[C@H]1NC2 (relative stereo) [Example 51, trans-2-Methyl-4,5,5a,6,7,11b-hexahydro-1-oxa-3,5-diaza-cyclopent-2-ena[c]phenanthrene-9,10-diol] | 0.33 | 65 | 100 | 11 | 382 | –
Oc1cc2c(cc1O)C1c3ccccc3CNC1CC2 (stereo not shown) [dihydrexidine] | – | – | – | – | – | dopamine agonist activity (dopamine receptors): active as a dopamine agonist
Oc1cc2c(cc1O)C1c3cc(C45CC6CC(CC(C6)C4)C5)sc3CNC1CC2 (stereo not shown) [Example 47, 2-(Adamantyl)-4,5,5a,6,7,11b-hexahydro-3-thia-5-aza-cyclopent-1-ena[c]phenanthrene-9,10-diol hydrobromide] | – | – | – | – | > 5000 | Ki (dopamine D-1 receptor; rat caudate, [125I]SCH-23982): > 10000 nM
Oc1ccc2c(c1O)CCC1NCc3ccccc3C21 (stereo not shown) | – | – | – | – | – | dopamine agonist activity (dopamine receptors): inactive at dopamine receptors
CCc1cc2c(o1)CN[C@@H]1CCc3cc(O)c(O)cc3[C@@H]21 (relative stereo) [Example 40, trans-2-Ethyl-4,5,5a,6,7,11b-hexahydro-3-oxa-5-aza-cyclopent-1-ena[c]phenanthrene-9,10-diol hydrochloride] | 0.12 | 37 | 70 | 15 | 480 | –
Cc1sc2c(c1C)CN[C@H]1CCc3cc(O)c(O)cc3[C@H]21 (relative stereo) [Example 21, trans-2,3-dimethyl-4,5,5a,6,7,11b-hexahydro-1-thia-5-aza-cyclopent-2-ena[c]phenanthrene-9,10-diol hydrobromide] | – | – | 95 | 15 | – | EC50 (D-1 receptor; goldfish retina or rat striatum homogenate): 182 nM; Ki (dopamine D-2 receptor): 66 nM
CN1CCc2cccc3c2[C@H]1Cc1ccc(O)c(O)c1-3 [apomorphine] | – | – | – | – | – | antipsychotic effects (schizophrenia): produce antipsychotic effects
Oc1cc2c(cc1O)C(c1ccccc1)CNCC2 (stereo not shown) [SKF 38393] | – | – | – | – | – | food intake (rats): decrease food intake by rats; effect on side-effects of haloperidol (schizophrenia; used in conjunction with haloperidol): ameliorate the undesired side-effects of the haloperidol
CC(C)C[C@H]1C(=O)N2CCC[C@H]2[C@]2(O)O[C@](NC(=O)[C@@H]3C=C4c5cccc6[nH]c(Br)c(c56)C[C@H]4N(C)C3)(C(C)C)C(=O)N12 [bromocriptine] | – | – | – | – | – | relief of Parkinson's disease symptoms (Parkinson's disease): relieve Parkinson's disease symptoms in some patients; antipsychotic effects (schizophrenia): produce antipsychotic effects
CC(C)c1nc2c(o1)[C@@H]1c3cc(O)c(O)cc3CC[C@H]1NC2 (relative stereo) [Example 50, trans-2-isopropyl-4,5,5a,6,7,11b-hexahydro-1-oxa-3,5-diaza-cyclopent-2-ena[c]phenanthrene-9,10-diol dihydrobromide] | > 1 | 81 | 108 | 12 | 365 | –

Reference: US5597832A (Abbott Laboratories, priority 1994, dated 1997)
